For orientation: melting point means the temperature, or range, at which the solid turns liquid.

As to `CCCCOCCOc1ccc(-c2ccc(N3CC=CC3)c(C=C(C)C(=O)O)c2)cc1`, the melting point lay within 138 to 140 °C.
`COc1ccc2c(c1)CC[C@@H](O)[C@@H]2N1CCCC1` (relative stereo) returned a melting point of 79 to 80 °C.
For `O=C(C=Cc1ccccc1)N1CCc2c([nH]c3ccccc23)C1c1ccccc1` (configuration not stated) the value was 130 to 132 °C; for `O=C1CCc2cc(OCc3ccccc3)ccc21`, 105 to 106 °C; for `CCC(C)c1cc(C=O)cc(C(C)CC)c1O` (configuration not stated), 65 to 68 °C.
In the case of `CCOC(=O)c1nc2scc(COCc3ccc(C#N)cc3)c2c(=O)[nH]1` it was 236 to 237 °C.
For `CC(=O)N1CC(=Cc2ccncc2)C(=O)c2ccccc21` the value was 170 °C.
On to `CCOc1ccc2c(c1)CC2C#N` (configuration not stated), for which the melting point fell in the range of 50 to 52 °C.
In the case of `COc1ccccc1C(=O)ON1C(=O)CCC1=O` it was 180 to 182 °C; in that of `CCc1c2c(nn1-c1ccccc1)c(=O)[nH]c1ccccc12`, 331 to 334 °C; in that of `O=C(O)CSC(CCc1ccccc1)c1ccc(OCc2ccc3ccccc3n2)cc1` (configuration not stated), 117 to 118 °C.
For `CNc1nnc(-c2ccc3occ(-c4ccccc4Cl)c3c2)o1` the value was 205 to 206 °C; for `CN(C)Cc1ccc(-c2cc3onc(-c4ccccc4)c3c(=O)n2C)cc1`, 159 to 161 °C; for `COC(=O)C1(NC(=O)OCc2ccccc2)CCC(=O)O1` (configuration not stated), 134 °C.
As to `COc1cc(N)c(Cl)cc1C(=O)NCC1CCN(CCCCCNC(=O)c2nn(C)c3ccccc23)CC1`, the melting point is 74 to 77 °C.
For `O=C1C=CC(=O)N1CCN1C(=O)C=CC1=O`, the melting point is 193 to 194 °C.
For `Clc1ccc(CN2CCCCC2)cn1` the value was 48 °C; for `O=C(/C=C/c1ccccc1I)NCCO`, 130 to 132 °C; for `C=CC1CCC2C3CCC4=CC(O)C=CC4(C)C3CCC12C` (configuration not stated), 98 to 128 °C.
In the case of `CC(C)(C)c1cc(OCc2ccc(C#N)cc2)cc(C(C)(C)C)c1O` it was 166 to 169 °C.
In the case of `CCCCCC(=O)c1cn(S(=O)(=O)c2ccc(C)cc2)c2ccccc12` it was 91 to 93 °C; in that of `COC(CN(c1nc2ccccc2o1)[C@H]1c2cc(C#N)ccc2OC(C)(C)[C@@H]1O)OC`, 66 °C.
In turn, `OCc1cccnc1Nc1cccc(C(F)(F)F)c1` registered a melting point of 102 °C.
In the case of `O=C(/C=C/c1ccc2cc[nH]c2c1)CC(=O)/C=C/c1ccc(OCc2ccccn2)cc1O` it was 188 to 190 °C; in that of `COC(=O)c1ccc(C(=O)Nc2cc3c4c(c2)CCCC4(C)CCC3)s1`, 212 °C.
In turn, `O=C(Nc1ccc2[nH]ccc2c1)C(=O)N1CCC(Cc2ccc(F)cc2)CC1` showed a melting point of 80 to 82 °C.
For `Fc1ccc2c(NCc3ccccc3)nc(-c3cccnc3)nc2c1` the value was 199 to 203 °C; for `Fc1cc(Cc2ccnc3c2Cc2ccccc2O3)ccn1`, 185 to 189 °C.
For the molecule `Cc1cc(N(C)S(=O)(=O)c2cccs2)c2[nH]c(C3=NCC(CNC(=O)OCc4ccccc4)S3)cc2c1` (configuration not stated), the melting point worked out at 160 °C.
In turn, `COCN1C(C)=C(C(=O)O)C(c2ccccc2C(F)(F)F)C(C(=O)O)=C1C` yielded a melting point of 172 to 173 °C.
For `Cn1c(=O)[nH]c2sccc2c1=O`, the melting point was 263 to 265 °C.
`CCCc1nc2c(N)nc3cc(OCCCNS(C)(=O)=O)ccc3c2s1` came in with a melting point of 168 to 171 °C.
For `COC(=O)NC(CCc1ccccc1)C(=O)OCC(Cl)(Cl)Cl` (configuration not stated) the value was 31 to 35 °C.
The molecule `COc1ccc(C2(c3ccc(-c4ccc(F)cc4)s3)N=C(N)N(C)C2=O)cc1C` (configuration not stated) had a melting point of 110 °C.
For `COC(=O)COc1ncccc1[N+](=O)[O-]` the value was 61.5 °C.
`Cc1ccc(S(=O)(=O)NCC(C)NS(=O)(=O)c2ccc(C)cc2)cc1` (configuration not stated) returned a melting point of 105 to 107 °C.
For `O=C1c2cc(Cl)ccc2NCN1CCN1CCOCC1` the value was 82 °C.
In the case of `O=C(O)Cn1c(=O)[nH]c(=O)c2ccc(Cl)cc21` it was 306 °C; in that of `O=c1ccc(C(c2ccccc2)c2ccc(Cl)cc2)c[nH]1` (configuration not stated), 164 to 169 °C; in that of `ClCCOc1cccc(OCCCl)c1`, 104 to 105 °C.
In the case of `CC(C)(N)CNC(=O)CNC(=O)c1ccccc1`, the melting point was 80 to 84 °C.
In the case of `CC(=O)N1c2ccc(Cl)cc2CC1C#N` (configuration not stated) it was 140 to 142 °C; in that of `C/C(=C\c1ccc(C(=O)OCc2ccc([N+](=O)[O-])cc2)cc1)c1ccc2c(c1)C(C)(C)CCC2(C)C`, 183 to 184 °C.
`CC(C)(C)OC(=O)N1CCC(CCOc2ccc(C=NO)cc2)CC1` gave a melting point of 114 to 116 °C.
In the case of `O=CCOc1ccccc1OCC(F)(F)F` it was 55.3 to 57.5 °C.
`COCC#Cc1cc(OC)c2ncc(C(=O)NCc3ccc(Cl)cc3)c(O)c2c1` came in with a melting point of 211 to 213 °C.
The molecule `NC(CO)(CO)CCc1ccc(C(=O)CCCCCCc2ccccc2)cc1` showed a melting point of 121 to 122 °C.
As for `CN(C)S(=O)(=O)c1cn(C)c2cc(C(F)(F)F)ccc2c1=O`, the melting point fell in the range of 221 to 223 °C.
In the case of `O=S(=O)(CCCCl)Nc1ccccc1OCc1ccc2ccccc2n1` it was 100 to 101 °C; in that of `Cc1ccccc1C(Oc1cc(OCc2ccc3ocnc3c2)ccc1C#N)C(=O)O` (racemic), 189 to 191 °C.
In turn, `CC(=O)Nc1cc2c(cc1[N+](=O)[O-])OCO2` gave a melting point of 207 to 208 °C.
In the case of `CC(=O)c1ccc(-n2c(-c3sc(Nc4ccccc4)nc3-c3ccccc3)nc3ccccc3c2=O)cc1` it was 223 to 225 °C; in that of `CCN1C(=O)NC(Cc2c[nH]c3ccccc23)C1=O` (configuration not stated), 167 to 170 °C; in that of `CCN1C(=O)C(C)(C)C(=O)N(C)c2cc(CN(CCn3ccc4oc(C)cc4c3=O)Cc3cccnc3Cl)ccc21`, 159 to 161 °C.
In the case of `C=CCSc1ccc(OC)nn1` it was 25 to 27 °C; in that of `Cc1ccc(Oc2c(C)cc(N)c(C)c2Cl)c(C)c1`, 86 to 88 °C.
On to `O=[N+]([O-])C1NC=CN1c1cccnc1` (configuration not stated), for which the melting point worked out at 261 °C.
`FC(F)(F)c1ccc(Nc2nnc(Cc3ccncc3)c3ccccc23)cc1`: the melting point was in the range of 205 to 206 °C.
For `Clc1ncc(Cl)c(-c2ccc(Cl)c(Cl)c2)n1`, the melting point is 125 to 126 °C.
With `CC1OC(n2cnc(C(N)=O)c2CC#N)C(O)C1O` (configuration not stated), the melting point lay within 173 to 174 °C.
For `CCCCc1c(C(=O)OCC)[nH]c2c(Br)cccc2c1=O` the value was 88 °C.
For `CC(=O)Nc1ccc(Nc2c([N+](=O)[O-])cc(C(=O)O)cc2S(=O)(=O)Nc2ccccc2NC(C)=O)cc1` the value was 252 to 253 °C; for `CCCCCCCCCCNCC(O)CO` (configuration not stated), 65 to 67 °C.
In the case of `Cc1cc2c(CCl)c(CO)c(Cl)nc2cc1Cl` it was 169 to 170 °C; in that of `c1ccc(-c2ncc(-c3cnc(-c4ccncc4)[nH]3)cn2)cc1`, 300 °C; in that of `Cc1cc(Cl)ncc1C(=O)O`, 170 to 172 °C.
`Cc1nnc(-c2ccc(Cl)c([N+](=O)[O-])c2)[nH]1` yielded a melting point of 168 °C.
In the case of `CSc1c(C=O)c(=O)n(C)c(=O)n1C` it was 104 °C.
In the case of `CN1CCN(C(=O)COc2ccc(N)cc2)CC1`, the melting point was 71 to 73 °C.
For `COc1ccc2c(-c3ccc(Cl)cc3F)noc2c1Cl` the value was 193 to 194 °C.
For `O=c1c(CO)coc2cc(OCCCN3CCC(c4noc5cc(F)ccc45)CC3)ccc12` the value was 200 to 202 °C.
`CCCc1c(OCCCS(=O)(=O)c2ccc(C(=O)CCC(=O)O)c(F)c2)ccc(C(C)=O)c1O` displayed a melting point of 116 to 118 °C.
For `CCOC(=O)C(C)=C(CC)NC(=O)Nc1cc(OC(C)C)c(Cl)cc1F` the value was 104 to 106 °C; for `CCCCCCCOc1ccc(-c2ncc(C#N)cn2)cc1`, 102 °C; for `COCc1c(C(=O)c2ccccc2)ncc2[nH]c3ccc(OCc4ccccc4)cc3c12`, 165 °C.
In the case of `O=C(Cc1c(-c2ccccc2)c2cc3c(cc2oc1=O)C=CC3)Nc1ccc(F)cc1C(F)(F)F` it was 217 to 218 °C; in that of `N#CC(Sc1nc2ccccc2[nH]1)c1ccccn1` (configuration not stated), 166 to 167 °C; in that of `C=Cc1ccc(CN2CCNCCN(Cc3ccc(C=C)cc3)CC2)cc1`, 162 to 164 °C.
For `CC1NC(=O)NN=C1c1ccc(OCC(=O)NCCN2CCNCC2)c(Cl)c1` (configuration not stated) the value was 208 to 210 °C.
On to `Cc1ccc(C(=CC=O)c2ccc(C)cc2)cc1`, for which the melting point was 92 to 93.5 °C.
`Cc1oc(-c2ccccc2)nc1CCOc1ccc(CCc2nnn[nH]2)cc1` showed a melting point of 143 to 144 °C.
`Cc1ccc(C(=O)N2CCC(c3ccccc3)=N2)cn1` returned a melting point of 86 to 87 °C.
Consider `COc1ccc(-n2c3ccccc3c3cc(C=C(C#N)c4ccc(F)c(F)c4F)ccc32)cc1`, for which the melting point lay in the range of 124 to 126 °C.
For the molecule `COc1ccc2nc(-c3ccccc3)cc(C(=O)Nc3ccc(CCCCN(C)Cc4ccc(OC)c(OC)c4)cc3)c2c1`, the melting point turned out to be 148 °C.
In the case of `COC(=O)C(C(C)C)S(=O)(=O)Nc1nc(OC)cc(OC)n1` (configuration not stated) it was 94 to 95 °C; in that of `CC(C)(C)OC(=O)Nc1ccc(-c2noc(COc3ccc(F)c(C(N)=O)c3F)n2)cc1`, 165 to 166 °C; in that of `CC(C)N(C)S(=O)(=O)NC(=O)c1ccc(F)c([N+](=O)[O-])c1`, 164 to 165 °C.
Turning to `O=C1C(=O)c2ccccc2C2=C1SCC1(CCN(C(=O)c3ccc(-n4cccn4)cc3)CC1)O2`, the melting point fell in the range of 299 to 300 °C.
For `CCOC(=O)C1=C(C)NC(C)=C(C(=O)OC)C1c1ccccc1Br` (configuration not stated) the value was 134 to 136 °C; for `COc1ccc(CCNC(=O)c2ccc3c(c2)C=CC(C)(C)O3)cc1`, 105 to 107 °C.
For `CN1C(=O)n2c(nc3ccccc32)NC12CCCC2` the value was 180 to 182 °C; for `O=C(O)c1ccc(NC(=O)c2ccc3c(c2)SCCCC3)cc1`, 261 to 262 °C.

Values taken from a melting point compilation (Tetko et al.; mined from patent text by program, amines drawn as free bases though some values may be those of a salt).
